In patent US20150025034A1, “COMPOSITION FOR CARE AND HYGIENE OF THE AUDITORY CANAL” (LABORATOIRES GILBERT, priority 2012, published 2015):

Assay: In vitro assessment of the cerumenolytic effect on plugs of human cerumen
Conditions: 1 ml per 30 mg plug, 1 hour incubation, 37° C.
Description: The activity was assessed through the loss of weight of the plugs of cerumen caused by the dissolution of part of this plug, or more precisely the loss was calculated between the initial dry weight and the remaining dry weight after action of the product in the test.
Reference product: an aerosol spray based on pure sea water (nitrogen propellant), hereinafter referred to as T1, an aerosol spray containing sodium bicarbonate and polysorbate as active principles, hereinafter referred to as T2, and ultrapure water (type 1, Milli-Q water) are used as references. T1 and T2 are commercially available compositions used by way of compositions for the care and hygiene of the auditory channel and judged effective.
12 plugs of human cerumen, to a total weight of 1.55 grams, came from patients from the Ear, Nose and Throat Department of the Saint-Grégoire Hospital (35760). The plugs were mixed in order to obtain a homogeneous plug. […]
The effect sought is the dissolution of the plug. This dissolution is assessed by the loss of weight of the plug between the initial dry weight and the dry weight after incubation. […]
1 ml of composition CE1 and the reference compositions were added separately in previously weighed tubes and put in an oven at 90° C. for 48 hours in order to determine the quantity of dry residues of each composition. […]

## O [pure water, water]
  Dissolution of human cerumen (loss of dry weight of the plug): 51.5%
